In US20190254997A1, “METHODS FOR INDUCING STEREOCILIA ON HAIR CELLS” (The Regents of the University of California, priority 2016, published 2019):

Key:
[1] = test system: myosin7A-positive cells (HCs) in utricular explants; assay: Effect of Notch inhibition (DAPT) on GM-damaged utricular explants, myosin7A immunoreactivity; type: cell-based, CD-1 mice; details: for number of myosin7A-positive cells: with or without 20 μM DAPT for 2 days then 5 days without, mean ± SD
Protocol: Effect of notch inhibition. To induce HC-like cells, two days after GM damage, we cultured utricular explants with 20 μM DAPT (N-[N-[(3,5-Difluoropheny)acetyl]-L-alanyl]L-phenylglycinetert-butyl: C23H26F2N2O4, Abcam) for 2 days, followed by 5 days without DAPT. DAPT is a prototypical y-secretase inhibitor. Since Notch signaling requires γ-secretase activity, DAPT is a potent inhibitor of this signaling pathway. As a control, we cultured GM-damaged utricles for 7 days without DAPT. Explants were analyzed for myosin7A immunoreactivity both as whole mounts and as tissue sections
Histochemical analysis. At the end of the culture period, explants were fixed for 15 min in 4% paraformaldehyde and permeabilized with 5% Triton X-100 in phosphate-buffered saline (PBS) after 3×PBS wash. Explants were then exposed to a blocking solution containing 10% bovine serum albumin (BSA), and then incubated with anti-myosin7A rabbit polyclonal antibodies (25-6790; Proteus Bioscience Inc., Ramona, Calif., USA; 1:500). Alexa-Fluor 568 goat anti-rabbit IgG (A-11011, Invitrogen, Calif., USA; 1:100) was used as the secondary antibody. At the same time, specimens were incubated in FITC-conjugated or Alexa-Fluor 633 phalloidin (1:100; Invitrogen) to label F-actin for 1 hr. Finally, the explants were incubated with DAPI for 15 min. Specimens were examined using a Leica TCS-SP2 laser-scanning confocal microscope (Leica Microsystems Inc., Wetzlar, Germany). Cells with phalloidin-positive surface structures were counted in randomly selected areas and averaged in each sample for each condition, using an evaluation reticule 100 μm on each side. Results from 6-7 samples were evaluated, based on initial observations of variability.

[2] = test system: HC stereociliary bundles and HC bodies of utricular maculae; assay: Gentamicin damage to HC stereociliary bundles and HC bodies in utricular macula explants; type: cell-based, CD-1 mice; details: 1mM GM for 48 hrs, utricular maculae in vitro, followed to 10 days
Text: Dissection of vestibular maculae and tissue culture. Postnatal mice were decapitated under deep anesthesia and their temporal bones were removed. Utricula maculae were dissected from the surrounding tissue in 0.01M phosphate-buffered saline, pH 7.4. The otoconial membranes were gently removed with a fine needle. Explants of utricular sensory epithelia were placed intact on type I collagen-coated cover glasses (Iwaki, Tokyo, Japan) and maintained in 24-well culture plates (Iwaki) in Dulbecco's modified Eagle's medium (Invitrogen, Eugene, Oreg., USA), supplemented with 6 g/l glucose (Wako Pure Chemicals, Osaka, Japan) and 1.5 g/l penicillin G (Wako Pure Chemicals), at 37° C. in a humidified atmosphere of 95% air and 5% CO2 for 24 hrs.
In order to examine the toxicity of gentamicin (GM) to HC stereociliary bundles and HC bodies, we damaged explants with 1mM GM (Nakarai, Japan) for 48 hrs and then maintained the explants in culture without GM for 10 days. After fixation with 4% paraformaldehyde and histochemistry (see below), we counted stereociliary bundles and HC bodies. Bundles and HC bodies were measured using a 10×40 eyepiece reticule. Each square of the reticule was 100 μm on a side. Surviving hair bundles and HC bodies were counted in each of three randomly selected fields including both striolar and extrastriolar regions, and the values obtained were averaged. […]

**Q.** How did the “stereociliary bundles in DAPT-treated explants” value ([1]; 20 μM DAPT) turn out when `C[C@H](NC(=O)Cc1cc(F)cc(F)c1)C(=O)N[C@H](C(=O)OC(C)(C)C)c1ccccc1` [DAPT, N-[N-[(3,5-Difluoropheny)acetyl]-L-alanyl]L-phenylglycinetert-butyl] was run?
**A.** remained very sparse

**Q.** And the “number of myosin7A-positive cells” value [1]?
**A.** 38.5±8.64 /10000 μm2

**Q.** For gentamicin [GM], which “number of HC bodies after GM treatment” value [2] is on record?
**A.** dramatically decreased

**Q.** What about the “stereociliary bundles after GM treatment” value [2] of the same molecule?
**A.** almost entirely lost

**Q.** What about the “number of myosin7A-positive cells” value [1] of the same molecule?
**A.** 25.4±5.5 /10000 μm2
